# Laboratory results reported in ChEMBL document CHEMBL1201862, “PubChem BioAssay data set” (2004).
#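 Where inhibition never reached the appropriate level, the endpoint shown equals the highest concentration tested. Otherwise, values were interpolated linearly from a five-concentration, 48-hour dose response in 96-well plates. GI50 is the concentration that inhibits growth by half.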 Active and inactive are the calls of the source. Rule as the data show it: active = GI50 up to about 1.1 µM and inactive = higher.
# Columns and labels:
# Assay in all cases: DTP human tumour cell line panel, 48 h
# [1] = system: UACC-62
# [2] = system: NCI/ADR-RES
# [3] = system: MDA-MB-231
# [4] = system: MDA-MB-435
# [5] = system: UO-31
# [6] = system: K562
# [7] = system: SK-MEL-28
# [8] = system: UACC-257
# [9] = system: RXF 393
# [10] = system: SNB-75
# [11] = system: Hs-578T
# [12] = system: NCI-H522
# [13] = system: MOLT-4
# [14] = system: OVCAR-3
# [15] = system: TK-10
# [16] = system: COLO 205
# [17] = system: IGROV-1
# [18] = system: HCT-116
# [19] = system: SR
# [20] = system: MDA-N
Structure (SMILES),GI50 [1],GI50 [2],GI50 [3],GI50 [4],GI50 [5],GI50 [6],GI50 [7],GI50 [8],GI50 [9],GI50 [10],GI50 [11],GI50 [12],GI50 [13],GI50 [14],GI50 [15],GI50 [16],GI50 [17],GI50 [18],GI50 [19],GI50 [20]
N#Cc1c(N)[nH]c2ccc(Sc3ccccc3)cc12,0.133 µM (active),0.101 µM (active),0.881 µM (active),< 0.107 µM (active),0.236 µM (active),< 0.0635 µM (active),0.141 µM (active),12.8 µM (inactive),0.208 µM (active),0.624 µM (active),0.449 µM (active),0.112 µM (active),0.143 µM (active),0.215 µM (active),1.8 µM (inactive),0.323 µM (active),0.198 µM (active),0.111 µM (active),,
O=C(NNC(=S)NCc1ccccc1)c1csc(NC(=S)NC2CCCCC2)n1,40.1 µM (inactive),31.3 µM (inactive),44.9 µM (inactive),26.7 µM (inactive),21.8 µM (inactive),,,18.6 µM (inactive),,,,35.1 µM (inactive),30.3 µM (inactive),42.1 µM (inactive),42.5 µM (inactive),18.2 µM (inactive),31.3 µM (inactive),22.3 µM (inactive),31.5 µM (inactive),28.9 µM (inactive)
CCCCN1C(=O)c2c(Br)sc(Br)c2C1=O,32.4 µM (inactive),30.9 µM (inactive),26.9 µM (inactive),37.4 µM (inactive),33.9 µM (inactive),30.5 µM (inactive),43.9 µM (inactive),30.4 µM (inactive),52 µM (inactive),29.5 µM (inactive),,0.391 µM (active),24.2 µM (inactive),,60 µM (inactive),19.5 µM (inactive),31.6 µM (inactive),24.9 µM (inactive),21.2 µM (inactive),33 µM (inactive)
CC(C)Oc1ccc2c(c1)OCC1Cc3ccccc3OC21 (configuration not stated),> 100 µM (inactive),71.9 µM (inactive),> 100 µM (inactive),63.2 µM (inactive),> 100 µM (inactive),88.1 µM (inactive),,33.7 µM (inactive),,,,79.1 µM (inactive),36.2 µM (inactive),> 100 µM (inactive),51.3 µM (inactive),> 10 µM (inactive),> 100 µM (inactive),> 100 µM (inactive),> 100 µM (inactive),49.2 µM (inactive)
CN(C)/C=N/S(=O)(=O)c1nn2c(C=O)c(-c3ccc(-c4ccccc4)cc3)nc2s1,2.34 µM (inactive),8.57 µM (inactive),2.99 µM (inactive),1.69 µM (inactive),1.4 µM (inactive),0.316 µM (active),1.98 µM (inactive),2.97 µM (inactive),1.71 µM (inactive),4.12 µM (inactive),3.09 µM (inactive),0.385 µM (active),0.283 µM (active),1.92 µM (inactive),1.83 µM (inactive),2.56 µM (inactive),1.24 µM (inactive),1 µM (active),0.49 µM (active),
COc1ccc2c(c1)CCN1CCCc3ccc(OC)cc3C21 (configuration not stated),57.3 µM (inactive),42.9 µM (inactive),49.8 µM (inactive),36.4 µM (inactive),22.5 µM (inactive),36 µM (inactive),> 100 µM (inactive),73.8 µM (inactive),41.4 µM (inactive),16.4 µM (inactive),48.1 µM (inactive),32.3 µM (inactive),37.1 µM (inactive),92 µM (inactive),> 100 µM (inactive),44.4 µM (inactive),57.4 µM (inactive),31.3 µM (inactive),41.5 µM (inactive),
O=C(CP(=O)(c1ccccc1)c1ccccc1)c1cccc(C(=O)CP(=O)(c2ccccc2)c2ccccc2)c1,> 100 µM (inactive),> 100 µM (inactive),> 100 µM (inactive),> 100 µM (inactive),20.3 µM (inactive),> 100 µM (inactive),> 100 µM (inactive),> 100 µM (inactive),24.7 µM (inactive),20.4 µM (inactive),25.6 µM (inactive),,> 100 µM (inactive),,48.6 µM (inactive),> 100 µM (inactive),55.2 µM (inactive),48.9 µM (inactive),> 100 µM (inactive),
O=S(=O)(c1ccccc1)n1c(C(O)c2ccncc2)cc2ccccc21 (configuration not stated),26.5 µM (inactive),35.2 µM (inactive),74.6 µM (inactive),36.3 µM (inactive),17.3 µM (inactive),31.6 µM (inactive),55.1 µM (inactive),10.7 µM (inactive),48.2 µM (inactive),34 µM (inactive),,,23.7 µM (inactive),46.8 µM (inactive),28.4 µM (inactive),39.7 µM (inactive),39.2 µM (inactive),43.1 µM (inactive),38.5 µM (inactive),39.1 µM (inactive)
COc1cc2c(cc1OCCCOc1cc3c(cc1OC)C(=O)N1CCC[C@H]1CN3)N=C[C@@H]1CCCN1C2=O,0.1 µM (active),3.11 µM (inactive),0.145 µM (active),0.117 µM (active),2.17 µM (inactive),0.0482 µM (active),0.202 µM (active),0.206 µM (active),0.0497 µM (active),0.179 µM (active),0.267 µM (active),< 0.0127 µM (active),0.011 µM (active),0.0929 µM (active),0.163 µM (active),0.108 µM (active),0.201 µM (active),0.124 µM (active),< 0.01 µM (active),
CC1=C(C(=O)NNC(=O)Cc2ccccc2)CC(C(=O)NNC(=O)Cc2ccccc2)=C(C)N1,35.4 µM (inactive),> 100 µM (inactive),> 100 µM (inactive),89.1 µM (inactive),> 100 µM (inactive),,> 100 µM (inactive),> 100 µM (inactive),47.8 µM (inactive),> 100 µM (inactive),,,,> 100 µM (inactive),> 100 µM (inactive),> 100 µM (inactive),> 100 µM (inactive),> 100 µM (inactive),,> 100 µM (inactive)
CN(C)C(=S)S [SODIUM DIMETHYLCARBAMODITHIOATE],> 100 µM (inactive),> 100 µM (inactive),43.6 µM (inactive),> 78 µM (inactive),56.4 µM (inactive),2.44 µM (inactive),> 64.4 µM (inactive),> 100 µM (inactive),83.9 µM (inactive),> 85.5 µM (inactive),> 100 µM (inactive),0.194 µM (active),35.4 µM (inactive),0.305 µM (active),> 100 µM (inactive),27.9 µM (inactive),2.23 µM (inactive),25.5 µM (inactive),,
